Common to all, as to assay type: biochemical
For data set [1], the target named is T1, MAO-B (Homo sapiens, UniProt P27338).
T1 construct: purchased Sigma-Aldrich
T1 sequence (P27338 1-520): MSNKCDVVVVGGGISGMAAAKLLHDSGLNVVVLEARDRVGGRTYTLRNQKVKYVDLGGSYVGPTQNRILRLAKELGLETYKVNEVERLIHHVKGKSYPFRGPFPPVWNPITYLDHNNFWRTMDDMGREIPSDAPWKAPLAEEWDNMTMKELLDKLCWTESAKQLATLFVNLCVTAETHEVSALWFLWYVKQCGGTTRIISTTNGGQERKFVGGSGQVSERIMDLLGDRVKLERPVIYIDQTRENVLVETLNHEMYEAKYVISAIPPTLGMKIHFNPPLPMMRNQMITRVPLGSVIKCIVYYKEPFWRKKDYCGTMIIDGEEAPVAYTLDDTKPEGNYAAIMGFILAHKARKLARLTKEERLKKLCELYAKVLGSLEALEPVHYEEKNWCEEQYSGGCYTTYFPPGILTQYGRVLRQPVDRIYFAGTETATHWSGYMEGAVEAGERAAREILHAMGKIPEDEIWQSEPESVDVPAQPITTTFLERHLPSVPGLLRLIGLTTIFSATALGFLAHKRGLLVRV
Nature of the data set: continuous spectrophotometric MAO-B inhibition assay. The note with it: for LiPE: LiPE = pIC50 - QPlogPo/w, new analogs and pargyline; for IC50: dilution series 50 μM to 1 nM, duplicates, read-out: MAO-B inhibition IC50; for MAO-B inhibition %: 10 µM, 2h.

Data set [2] deals with T2, MAO-A (Homo sapiens, UniProt P21397).
T2 construct: purchased Sigma-Aldrich
T2 sequence (P21397 1-527): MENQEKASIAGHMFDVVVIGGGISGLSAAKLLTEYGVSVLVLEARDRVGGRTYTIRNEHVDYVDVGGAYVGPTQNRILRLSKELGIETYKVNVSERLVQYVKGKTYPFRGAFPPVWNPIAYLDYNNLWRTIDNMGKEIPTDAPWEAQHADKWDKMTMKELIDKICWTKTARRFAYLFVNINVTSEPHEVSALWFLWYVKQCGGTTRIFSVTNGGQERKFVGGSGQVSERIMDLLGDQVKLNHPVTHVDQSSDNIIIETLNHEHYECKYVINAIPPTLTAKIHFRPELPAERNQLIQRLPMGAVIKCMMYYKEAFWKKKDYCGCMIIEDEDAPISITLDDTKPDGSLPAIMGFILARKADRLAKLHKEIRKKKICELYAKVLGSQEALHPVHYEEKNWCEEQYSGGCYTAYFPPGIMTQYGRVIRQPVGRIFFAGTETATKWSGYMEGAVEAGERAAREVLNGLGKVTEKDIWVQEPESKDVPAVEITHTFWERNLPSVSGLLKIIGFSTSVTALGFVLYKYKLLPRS
In words: continuous spectrophotometric MAO-A inhibition assay. The note with it: for MAO-A inhibition %: 100 µM, 1h.

Data set [3] concerns the target T3, human CYP1A2 (Homo sapiens, UniProt P05177).
T3 construct: purchased Corning Inc
T3 sequence (P05177 1-516): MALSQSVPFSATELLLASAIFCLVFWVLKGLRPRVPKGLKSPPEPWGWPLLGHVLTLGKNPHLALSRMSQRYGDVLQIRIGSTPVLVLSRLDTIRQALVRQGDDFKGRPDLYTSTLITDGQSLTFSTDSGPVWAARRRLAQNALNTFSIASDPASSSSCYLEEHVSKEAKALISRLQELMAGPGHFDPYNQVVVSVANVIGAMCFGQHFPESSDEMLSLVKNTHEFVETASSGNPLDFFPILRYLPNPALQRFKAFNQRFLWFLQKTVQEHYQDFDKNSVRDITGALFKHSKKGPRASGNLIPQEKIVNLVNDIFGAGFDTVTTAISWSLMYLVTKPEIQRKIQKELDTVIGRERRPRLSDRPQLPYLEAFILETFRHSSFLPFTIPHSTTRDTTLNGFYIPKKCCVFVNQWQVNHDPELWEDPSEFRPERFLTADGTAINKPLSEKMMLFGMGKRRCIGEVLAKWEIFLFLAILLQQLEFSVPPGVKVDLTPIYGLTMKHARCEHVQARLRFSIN
In words: CYP1A2 inhibition, 7-ethoxyresorufin fluorescence assay. On the procedure:
Inhibition of CYP1A2 activity was determined with commercial heterologously expressed human CYP1A2 enzyme (Corning Inc., Corning, NY, USA) as described earlier (Korhonen et al., [2005]). The metabolic activity was not in the scope of this particular study. The assay was adapted to the 96-well plate format. In each well, a 150 μL incubation volume contained 100 mM Tris-HCl buffer (pH 7.4), 4.2 mM MgCl2,1 μM 7-ethoxyresorufin, 0.5 pmol of cDNA expressed CYP1A2, […] inhibitor, and a NADPH-generating system. All inhibitors were dissolved in ethanol, and the final concentration of ethanol was 2% in all incubations. The reaction was initiated by adding the NADPH-regenerating system after a 10 min preincubation at 37°C, and after a 20 min incubation, the reaction was terminated by the addition of 110 μL of 80% acetonitrile/20% 0.5 M Tris base. The formed fluorescence was measured with a Victor2 plate counter (Perkin-Elmer Life Sciences Wallac, Turku, Finland) at 570 nm excitation and 616 nm emission.

“And” between values parts separate entries of the source, which are not always exact repeats. Identical values can stand only once.

As a reminder, the inhibition is the change of the read-out against control, counted positive when it falls. As a reminder, the IC50 is the midpoint of a concentration-inhibition curve. On to `COc1cccc(-c2cc3ccccc3oc2=O)c1` [derivative 11, 3-(3-methoxyphenyl)-2H-chromen-2-one], for which, in data set [1], the inhibition at 10 µM worked out at 90.3%, the LiPE is 3.04 and the IC50 was determined as 0.798 µM. Besides, the inhibition at 100 µM in data set [2] came out at 0%. The compound also registered an IC50 in data set [3] of 1.6 µM.
In the case of `O=c1oc2ccc(O)cc2cc1-c1ccc(O)cc1` [derivative 48], in data set [1], the MAO-B inhibition % stood at 15.50%. In data set [2], the MAO-A inhibition % stood at 0.00%. This compound showed an IC50 in data set [3] of 33 µM.
The matching figures for `O=c1oc2ccccc2cc1-c1cccc(O)c1` [derivative 31]: 49.60%, 4.14% and 7 µM.
Turning to `Cc1ccc2oc(=O)c(-c3ccc(C(F)(F)F)cc3)cc2c1` [derivative 5, 6-methyl-3-(4-(trifluoromethyl)phenyl)-2H-chromen-2-one], in data set [1], the inhibition at 10 µM was 105%, the LiPE is on record as 2.11 and the 50% inhibitory concentration (IC50) worked out at 0.343 µM. The inhibition at 100 µM in data set [2] was 0%. This compound returned an IC50 in data set [3] of 171 µM.
The matching figures for `COc1ccc2oc(=O)c(-c3ccc(O)c(F)c3)cc2c1` [derivative 22, 3-(3-fluoro-4-hydroxyphenyl)-6-methoxy-2H-chromen-2-one]: 94.9%, 3.35, 0.831 µM, 0% and 1.5 µM.
On to `COc1cccc(-c2cc3ccc(OC)cc3oc2=O)c1` [derivative 25], for which, in data set [1], the MAO-B inhibition % is reported as 67.49%. The compound also returned an MAO-A inhibition % in data set [2] of 0.00%. Besides, in data set [3], the IC50 came to 35 µM.
With `COc1cccc(-c2cc3cc(OC)ccc3oc2=O)c1` [derivative 8, 6-methoxy-3-(3-methoxyphenyl)-2H-chromen-2-one], in data set [1], the inhibition at 10 µM came out at 112%; the LiPE was determined as 3.53; the IC50 is ~0.23 µM and 0.23 µM and 0.231 µM. Besides, the inhibition at 100 µM in data set [2] was determined as 0%. This compound returned an IC50 in data set [3] of 2.3 µM.
`COc1ccc(-c2cc3cccc(O)c3oc2=O)cc1` [derivative 33] returned an MAO-B inhibition % in data set [1] of 47.64%. Also, the MAO-A inhibition % in data set [2] came out at 3.66%. The same compound registered a 50% inhibitory concentration (IC50) in data set [3] of 86 µM.
For `COc1ccc(-c2cc3ccccc3oc2=O)cc1` [derivative 36], the MAO-B inhibition % in data set [1] was 41.12%. Besides, the MAO-A inhibition % in data set [2] was 0.87%. Further, in data set [3], the midpoint of inhibition, the IC50, lay at 26 µM.
With `O=c1oc2cc(O)ccc2cc1-c1ccccc1` [derivative 41], in data set [1], the “MAO-B inhibition (in words)” value is “activity is lost” and the MAO-B inhibition % was determined as 23.82%. The compound also returned an MAO-A inhibition % in data set [2] of 9.52%. This compound registered a concentration for half-maximal inhibition (IC50) in data set [3] of 8 µM.
As for `COc1ccc2oc(=O)c(-c3ccc(F)cc3)cc2c1` [derivative 21, 3-(4-fluorophenyl)-6-methoxy-2H-chromen-2-one], in data set [1], the inhibition at 10 µM worked out at 88.8%, the LiPE was 3.04 and the IC50 is 0.433 µM. Moreover, the inhibition at 100 µM in data set [2] is 0%. The compound also displayed a half-maximal inhibitory concentration (IC50) in data set [3] of 3 µM.
In the case of `COc1ccc2cc(-c3ccc(O)c(F)c3)c(=O)oc2c1` [derivative 20, 3-(3-fluoro-4-hydroxyphenyl)-7-methoxy-2H-chromen-2-one], in data set [1], the inhibition at 10 µM amounted to 101%, the LiPE came out at 3.70 and the IC50 is 0.391 µM. Further, the inhibition at 100 µM in data set [2] was found to be 0%. In addition, the midpoint of inhibition in data set [3], the IC50, lay at 30 µM.
Turning to `COc1ccc2cc(-c3cc(F)c(F)cc3F)c(=O)oc2c1` [derivative 16, 7-methoxy-3-(2,4,5-trifluorophenyl)-2H-chromen-2-one], in data set [1], the inhibition at 10 µM was 77.6%, the LiPE is given as 2.13 and the IC50 was 1.43 µM. In data set [3], this compound came in with a half-inhibitory concentration (IC50) of 4.5 µM.
In the case of `COc1ccc2oc(=O)c(-c3ccc(N(C)C)cc3)cc2c1` [derivative 18, 3-(4-(dimethylamino)phenyl)-6-methoxy-2H-chromen-2-one], in data set [1], the inhibition at 10 µM came out at 93.9%, the LiPE is reported as 2.72 and the IC50 was 0.617 µM. Moreover, in data set [2], the inhibition at 100 µM amounted to 0%. In data set [3], this compound gave an IC50 of 17 µM.
In the case of `COc1ccc2oc(=O)c(-c3cc(F)c(F)cc3F)cc2c1` [derivative 15, 6-methoxy-3-(2,4,5-trifluorophenyl)-2H-chromen-2-one], in data set [1], the inhibition at 10 µM came out at 87.2%, the LiPE is recorded as 2.80 and the IC50 amounted to 0.292 µM. Besides, in data set [2], the inhibition at 100 µM is 0%. This compound also registered an IC50 in data set [3] of 3 µM.
With `O=c1oc2ccc(O)cc2cc1-c1ccc(F)cc1` [derivative 24, 3-(4-fluorophenyl)-6-hydroxy-2H-chromen-2-one], in data set [1], the inhibition at 10 µM turned out to be 89.1%, the LiPE turned out to be 3.37 and the IC50 was 1.06 µM. In addition, in data set [2], the inhibition at 100 µM was found to be 14.2%. Moreover, the midpoint of inhibition in data set [3], the IC50, lay at 3 µM.
Take `CC(=O)Oc1ccc2cc(-c3ccc(F)cc3)c(=O)oc2c1` [derivative 28]: the MAO-B inhibition % in data set [1] is recorded as 59.20%. Besides, the MAO-A inhibition % in data set [2] was determined as 0.00%. Moreover, in data set [3], half-maximal inhibition (IC50) required 114 µM.
As for `COc1ccc(-c2cc3ccc(O)cc3oc2=O)cc1` [derivative 12, 7-hydroxy-3-(4-methoxyphenyl)-2H-chromen-2-one], in data set [1], the inhibition at 10 µM was 85.9%, the LiPE is reported as 3.53 and the IC50 came to 0.955 µM. The inhibition at 100 µM in data set [2] was 24.6%. Also, the IC50 in data set [3] was 170 µM.
`Cc1ccc2oc(=O)c(-c3ccc(F)cc3)cc2c1` [derivative 23, 3-(4-fluorophenyl)-6-methyl-2H-chromen-2-one]: in data set [1], the inhibition at 10 µM stood at 83.5%, the LiPE was 2.46 and the IC50 came to 0.902 µM. For the same compound, in data set [2], the inhibition at 100 µM was 0%. This compound also displayed an IC50 in data set [3] of 3 µM.
In data set [1], `O=c1oc2cc(O)ccc2cc1-c1ccc(F)cc1` [derivative 39] came in with an MAO-B inhibition % of 26.44%. This compound also registered an MAO-A inhibition % in data set [2] of 12.56%. In data set [3], this compound registered an IC50 of 240 µM.
Compound `O=c1oc2ccc(O)cc2cc1-c1cccc(O)c1` [derivative 38] registered an MAO-B inhibition % in data set [1] of 27.16%. This compound also had an MAO-A inhibition % in data set [2] of 13.11%. This compound also came in with an IC50 in data set [3] of 24 µM.
`O=c1oc2cc(O)ccc2cc1-c1ccc(O)cc1` [derivative 30]: the MAO-B inhibition % in data set [1] was determined as 52.68%. The compound further gave an MAO-A inhibition % in data set [2] of 0.00%. In addition, the IC50 in data set [3] is 22 µM.
For `O=c1oc2ccccc2cc1-c1ccc(O)cc1` [derivative 29] the same measures were 53.65%, 0.00% and 26 µM.
With `COc1ccc2oc(=O)c(-c3ccc(Oc4ccc(F)cc4)cc3)cc2c1` [derivative 46], the MAO-B inhibition % in data set [1] is recorded as 19.73%. Also, the MAO-A inhibition % in data set [2] turned out to be 8.11%. Also, the IC50 in data set [3] worked out at 240 µM.

(Values after PMC5840146, “Structure-Activity Relationship Analysis of 3-Phenylcoumarin-Based Monoamine Oxidase B Inhibitors” (Frontiers in Chemistry, 2018).)
